According to PMC10590756, “Glutarate regulates T cell metabolism and anti-tumour immunity” (Nature Metabolism, 2023):

Columns and labels:
[1] = system: 5hmC (the reaction product of TET2) in human CD8^+ T cells; test: 5hmC staining by flow cytometry; assay type: cell-based; settings: DEG 7 days, dose-dependent
Method: For 5-hydroxymethylcytosine (5hmC) staining, cells were stained for surface antigens as above and then fixed and permeabilized with the Transcription Factor Buffer Set. Next cells were incubated with 4 M HCl for 10 min at room temperature. Cells were then thoroughly washed and incubated in blocking buffer (0.1% PBS-Triton X-100, 5% FCS) for 30 min at 4 °C. Cells were then incubated with primary anti-5hmC (catalogue no. 10013602, Active Motif) overnight at 4 °C and the day after with secondary antibody for 1 h at room temperature. Flow cytometry was then performed as explained above. Cells were sorted on an FACSAria III (BD Biosciences) after surface antigen staining as described above. Data were analysed using FlowJo v.10.7.2.

[2] = system: H3 lysine methylation in human CD8^+ T cells; test: Histone 3 methylation western blot; assay type: cell-based; settings: DEG 500 µM, 7 days
Method: Histones were extracted with the Histone Extraction Kit (catalogue no. ab113476, Abcam). Proteins were separated by SDS–PAGE and transferred to polyvinylidene fluoride (PVDF) membranes. Total protein stain was obtained using non-stain protein labelling reagent (catalogue no. A44448, Thermo Fisher Scientific). Membranes were then blocked in 5% milk prepared in PBS plus 0.05% Tween-20, incubated with primary antibodies overnight at 4 °C and horseradish peroxidase (HRP)-conjugated secondary antibodies (catalogue nos. HAF008 and HAF007, R&D Systems) for 1 h the next day. After enhanced chemiluminescence (ECL) exposure (catalogue no. GERPN2106, Sigma-Aldrich), membranes were imaged using an iBrightCL1000 (Thermo Fisher Scientific). […] 13998); and anti-H3k27ac (catalogue no.

[3] = biological target: T1, PDHE2 K259 in HeLa cells (Homo sapiens, UniProt P10515); test: Proteomic analysis of PTMs on immunoprecipitated PDHE2; assay type: cell-based; settings: 500 µM DEG, 24 h
T1 construct: Proteomic analysis of PDHE2 immunoprecipitated from HeLa cells; endogenous in cells; host or cells: HeLa cells
Method: HeLa cells were lysed on ice for 30 min in a HEPES buffer (150 mM NaCl, 50 mM HEPES, pH 7.0, 1% IGEPAL CA-630, 1 mM nicotinamide (Sigma-Aldrich), 5 mM Tris(2-carboxyethyl)phosphine hydrochloride (Sigma-Aldrich), 1× Complete Protease Inhibitor Cocktail (Roche) and 1 mM phenylmethylsulfonyl fluoride). Lysates were centrifuged at 14,000g for 10 min at 4 °C. Free thiols were blocked by adding 10 mM N-ethylmaleimide (NEM) (Sigma-Aldrich) and incubated on a rotator at 4 °C for 1 h. Lysates were immunoprecipitated by incubation with protein G Dynabeads (catalogue no. 10003D, Invitrogen), first for 1 h to pre-clear, and then overnight with the DLAT antibody (12362S (4A4-B6-C10), Cell Signaling Technology). […]
Raw files were processed using PEAKS Studio (v.8.0, Bioinformatics Solutions) with the following parameters: enzyme: AspN, human database (UniProt reference proteome downloaded 21 January 2021 containing 20,541 proteins) with additional contaminant database (containing 246 common contaminants); variable modifications at PEAKS database stage: oxidation, carbamidomethylation, lipoylation, 1× and 2× NEM, glutaryl lipoate, NEM glutaryl lipoate and 309 built-in modifications at PEAKS PTM stage. The area under the curve (AUC) values for each peptide were extracted from the PEAKS peptide list, with AUCs calculated by PEAKS.

[4] = system: B16F10-OVA melanoma tumours; test: B16F10-OVA tumour growth and infiltration model; assay type: in vivo, C57BL/6J mice
Method: Seven to 10-week-old male C57BL/6J mice were inoculated subcutaneously with 1.0 × 10^6 B16F10-OVA. Animals were assigned randomly to each experimental group. Four days after inoculation, mice were treated with a peritoneal injection of 0.2 mg DEG (approximately 10 mg kg^−1). Treatment was repeated every 2–3 days until day 28. Tumour volume was measured every 2–3 days with electronic callipers until day 30. Peripheral blood was collected from the tail vein at day 7 and 14 days after tumour inoculation and analysed using flow cytometry. On day 14, tumours were dissected and dissociated using the Tumor Dissociation Kit (catalogue no. 130-095-929, Miltenyi Biotec), according to the manufacturer’s instructions. Spleen and the tumour-draining lymph node were mashed in cell strainers. The tumour, spleen and draining lymph node single-cell suspensions were stained with fluorochrome-labelled antibodies and analysed using flow cytometry. The tumour experiments using C57BL/6J mice were carried out in accordance with the ethical regulations of the UK Home Office and the maximal tumour burden of […] was not exceeded (mice were euthanized when tumour volume exceeded […]).

[5] = 14 days after tumour inoculation, relative to controls

T1 sequence (P10515 87-647): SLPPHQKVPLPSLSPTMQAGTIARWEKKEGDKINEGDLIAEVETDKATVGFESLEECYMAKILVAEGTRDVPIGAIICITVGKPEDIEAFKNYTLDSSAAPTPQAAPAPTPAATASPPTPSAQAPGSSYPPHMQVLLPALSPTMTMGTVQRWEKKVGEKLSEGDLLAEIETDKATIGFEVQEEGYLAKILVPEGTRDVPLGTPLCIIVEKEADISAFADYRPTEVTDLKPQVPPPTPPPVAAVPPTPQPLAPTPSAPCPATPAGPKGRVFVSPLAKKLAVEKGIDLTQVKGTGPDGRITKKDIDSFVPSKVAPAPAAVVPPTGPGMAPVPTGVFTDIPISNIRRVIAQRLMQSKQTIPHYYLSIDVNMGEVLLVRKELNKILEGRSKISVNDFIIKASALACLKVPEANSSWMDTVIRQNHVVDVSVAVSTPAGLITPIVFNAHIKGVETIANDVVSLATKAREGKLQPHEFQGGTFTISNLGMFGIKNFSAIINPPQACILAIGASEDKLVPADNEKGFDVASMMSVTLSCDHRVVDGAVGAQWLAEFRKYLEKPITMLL

SMILES: CCOC(=O)CCCC(=O)OCC [DEG, Diethyl glutarate]
- 5hmC levels [1]: decrease
- dimethylation of H3K9 [2]: increased
- trimethylation of H3K9 [2]: increased
- trimethylation of H3K27 [2]: increased
- levels of glutaryl-lipoyl K259 of PDHE2 [3]: increasing
- levels of lipoyl K259 of PDHE2 [3]: reduced
- survival ([4]; 10 mg kg^−1 DEG intraperitoneally every 48–72 h, 1,000 mm^3 tumour volume as threshold): significantly increased survival
- tumour growth ([4]; 10 mg kg^−1 DEG intraperitoneally every 48–72 h from day 4): significantly slowed tumour growth
- peripheral blood CD8^+ T cells [4, 5]: significant increase
- tumour-infiltrating CD8^+ T cells [4, 5]: significant increase
- other immune populations ([4]; blood, tumour, spleen, tumour-draining lymph node, day 14): No changes
- circulating B cells ([4]; day 14): slight decrease
- exhaustion-associated markers (TIM3, PD1, LAG3, TOX) in tumour-infiltrating CD4^+ or CD8^+ cells ([4]; day 14): no changes
- memory-associated markers (CD62L and CD44) in tumour-infiltrating CD4^+ or CD8^+ cells ([4]; day 14): no changes
